The numbers were not newly measured in patent US8377956B2, “Use of (3R)-4-{[(1S)-2-methyl-1-(2-methylpropanoyloxy)propoxy]carbonylamino}-3-(4-chlorophenyl) butanoic acid for treating urinary incontinence” (XenoPort, Inc., priority 2010, dated 2013), which cites them from elsewhere.

The structures appear in SMILES notation.

The data set concerns patients with unstable bladder syndrome. Particulars: 5 mg four times per day.

Turning to `NCC(CC(=O)O)c1ccc(Cl)cc1` (racemic) [baclofen, (±)-4-Amino-3-(4-chlorophenyl)butanoic acid], the “diurnal and nocturnal frequency of micturition” value is “significantly improve”; the severity of incontinence result is “significantly improve”.
